Experimental findings from ChEMBL document CHEMBL3639255, “Bivalent diazo bicyclic Smac mimetics and the uses thereof” (2014) are described below.

The target of assay [1] is Baculoviral IAP repeat-containing protein 3 (Homo sapiens, UniProt Q13489). The assay is described as follows: (§1) Fluorescence Polarization-Based Assays: An in vitro fluorescence polarization (FP) based binding assay was used to test the binding ability of the compounds of the present invention to certain IAP proteins (Nikolovska-Coleska et al., Anal. Biochem. 332:261-73 (2004)). he FP-based assay for XIAP BIR3 protein was described in detail previously (Nikolovska-Coleska et al., Anal. Biochem. 332:261-73 (2004)). Briefly, 5-carboxyfluorescein was coupled to the lysine side chain of a mutated Smac peptide with the sequence (AbuRPFK-Fam) and this fluorescently tagged peptide (named SM5F) was used as the fluorescent tracer in FP-based binding assay to XIAP BIR3. In general terms: Fluorescence polarisation rises when a labelled molecule tumbles more slowly, as on binding a larger partner.
Chain of Baculoviral IAP repeat-containing protein 3 (Q13489 whole entry, looked up, stated change not applied): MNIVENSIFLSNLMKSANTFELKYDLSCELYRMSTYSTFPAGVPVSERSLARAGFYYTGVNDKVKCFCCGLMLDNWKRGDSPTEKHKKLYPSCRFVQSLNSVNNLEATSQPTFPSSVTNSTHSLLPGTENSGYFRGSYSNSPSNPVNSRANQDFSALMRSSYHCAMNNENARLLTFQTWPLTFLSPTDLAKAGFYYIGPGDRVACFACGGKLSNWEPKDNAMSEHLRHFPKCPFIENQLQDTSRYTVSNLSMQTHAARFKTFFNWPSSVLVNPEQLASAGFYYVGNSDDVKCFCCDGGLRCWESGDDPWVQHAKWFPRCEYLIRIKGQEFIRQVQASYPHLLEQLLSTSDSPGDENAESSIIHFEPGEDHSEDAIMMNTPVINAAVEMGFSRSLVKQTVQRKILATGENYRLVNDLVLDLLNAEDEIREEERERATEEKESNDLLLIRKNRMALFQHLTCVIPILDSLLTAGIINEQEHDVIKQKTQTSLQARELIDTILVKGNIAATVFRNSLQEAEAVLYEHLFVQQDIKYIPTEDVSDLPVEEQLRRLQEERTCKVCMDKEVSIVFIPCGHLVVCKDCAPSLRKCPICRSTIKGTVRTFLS

The target of assay [2] is Baculoviral IAP repeat-containing protein 2 (Homo sapiens, UniProt Q13490). The assay is described as §1.
Chain of Baculoviral IAP repeat-containing protein 2 (Q13490 whole entry, looked up, change not shown): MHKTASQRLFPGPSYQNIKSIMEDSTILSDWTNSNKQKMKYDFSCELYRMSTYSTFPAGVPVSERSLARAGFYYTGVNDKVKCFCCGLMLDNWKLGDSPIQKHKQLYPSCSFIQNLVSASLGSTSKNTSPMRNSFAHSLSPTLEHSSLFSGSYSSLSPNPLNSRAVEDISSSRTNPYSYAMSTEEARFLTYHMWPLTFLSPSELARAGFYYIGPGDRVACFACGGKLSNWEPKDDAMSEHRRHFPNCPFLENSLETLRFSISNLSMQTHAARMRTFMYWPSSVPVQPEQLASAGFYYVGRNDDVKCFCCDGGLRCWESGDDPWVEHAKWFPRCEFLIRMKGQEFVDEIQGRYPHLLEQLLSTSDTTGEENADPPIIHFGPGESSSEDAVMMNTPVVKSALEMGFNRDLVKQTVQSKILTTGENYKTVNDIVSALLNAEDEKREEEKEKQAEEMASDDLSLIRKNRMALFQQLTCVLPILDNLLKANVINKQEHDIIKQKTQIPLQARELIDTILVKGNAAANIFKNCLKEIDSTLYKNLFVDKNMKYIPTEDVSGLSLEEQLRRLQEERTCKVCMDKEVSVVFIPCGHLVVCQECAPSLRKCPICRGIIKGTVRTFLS

Turning to `CN[C@@H](C)C(=O)N[C@H]1CN(C(=O)CCCCCCCCCCC(=O)N2CC[C@H]3CC[C@@H](c4nc5c(-c6ccccc6)cccc5[nH]4)N3C(=O)[C@@H](NC(=O)[C@H](C)NC)C2)CC[C@H]2CC[C@@H](c3nc4c(-c5ccccc5)cccc4[nH]3)N2C1=O`, in assay [1], the half-maximal inhibitory concentration (IC50) was < 50 nM.

Take `C=CC(C=C)c1cccc2[nH]c([C@@H]3CC[C@@H]4CCN(C(=O)CCCCCCCCCCC(=O)N5CC[C@H]6CC[C@@H](c7nc8c(-c9ccccc9)cccc8[nH]7)N6C(=O)[C@@H](NC(=O)[C@H](C)NC)C5)C[C@H](NC(=O)[C@H](C)NC)C(=O)N43)nc12`: the IC50 in assay [2] was < 50 nM.

A word on the IC50: it is the point on the concentration scale where inhibition reaches its midpoint. Read a low IC50 as higher potency.
